According to patent publication US20110123483A1, “HMGB1 FOR CANCER TREATMENT” (DEUTSCHES KREBSFORSCHUNGSZENTRUM, priority 2009, published 2011):

Experiments:
[1] = system: non-immortalized human astrocytic cells; test: Cytotoxicity assay, cell survival by crystal violet staining; format: cell-based; conditions: 72 h (FIG. 1B)
Protocol: U251 glioblastoma cells and non-immortalized human astrocytic cells (ScienCell, USA) were maintained in DMEM (Life Technologies) containing 10% FCS, 4.5 g/L glucose, glutamine, 110 mg/L sodium pyruvate, and 1% penicillin-streptomycin (Life Technologies) and in astrocyte medium (ScienCell) containing 2% FBS (fetal bovine serum) and 1% penicillin-streptomycin at 37° C. and 5% CO2. For the generation of pseudo rho zero cells (0.0), U251 MG cells were treated with low dose (250 ng/ml) ethidiumbromide for 3 months. The cells were supplemented with DMEM (10% FCS, 1% P/S) containing 50 μg/ml L-pyruvate and 5 mg/ml uridine (King and Attardi, 1989).
20,000 U251MG glioblastoma cells or human astrocytic cells (ScienCell) were plated into 96-well plates. After 24 h cells were treated with rhHMGB1 (Sigma Aldrich) or rat recombinant HMGB1 (generously provided by Angelika Bierhaus, Heidelberg, Germany), and TRAIL (for 24 h) or Temozolomide (for 72 h) alone or in combination, respectively. Cell survival was measured by crystal violet staining as described previously (Gdynia et al., 2007). Cell proliferation was assessed by seeding 50,000 U251 MG cells in 6 cm culture plates and treatment with rhHMGB1, followed by counting the cells in a Neubauer chamber at day 0, 2, 4 and 5.

mitochondrial proteome = test: 2-D gel electrophoresis / 2-D western blot of the mitochondrial proteome; format: cell-based, human
Protocol: Mitochondrial extracts of U251 MG cells precipitated according to the ProteoExtract Protein Precipitation Kit (Calbiochem) were pipetted into the sample cup of each strip holder. For large format 2-D-electrophoresis with silver staining and 2-D-western blots, isoelectric focusing (IEF) was performed as described previously (Schutt et al., 2002) using dry polyacrylamide gel strips (IPG, 24 cm) with an immobilized pH gradient pH 3-10 and the IPGphor1 Isolectric Focusing System (Amersham Pharmacia Biotech). IPG strips were rehydrated in reswelling buffer (7 M urea, 2 M thiourea, 2% (w/v) CHAPS, 65 mM dithiothreitol (DTT), 0.8% Pharmalite) overnight. The IEF protocol started at 500 V for 4 h, followed by an increase from 500 V to 4000 V for 10 h and finally 8000 V for 10 h. Equilibration buffer for IPG strips contained 75 mM Tris-HCl, pH 8.8, 2% SDS, 6 M urea, 29.3% glycerol and 0.002% (w/v) bromophenol blue solution, supplemented with 1.5% DDT for the first 15 min and with 2.5% (w/v) iodoacetamide for the following 15 min. For the second dimension the ETTAN Dalt six electrophoresis system was used. After draining the equilibration solution on filter paper the IPG strips were placed on the SDS gel; the electrical settings were 10 mA/gel, 80 V, 1 W/gel for 1 h, followed by 40 mA/gel, 500 V, 13 W/gel for 5-6 h. […]

rhHMGB1: recombinant human High Mobility Group B1 protein (Sigma Aldrich)
susceptibility to rhHMGB1-induced cell death [1]: not human non-immortalized astrocytes were susceptible
mitochondrial proteome, 2-D silver staining (mitochondrial proteome; 80 nM, 24 h (FIG. 11B)): massive depletion of the isoelectric-neutral proteins
covalently bound malondialdehyde, 2-D western blot (mitochondrial proteome; alkaline range (FIG. 11C)): substantial increase in covalently bound malondialdehyde
